# Results: patent publication US20260258064A1 (SIRONAX LTD., priority 2023, published 2026)
# Target: T1, SARM1 (50-724) (Homo sapiens, UniProt Q6SZW1)
# T1 construct: Purified SARM1 (50-724) with a final concentration of 2 nM was pre-incubated with a test compound
# T1 sequence (Q6SZW1 50-724): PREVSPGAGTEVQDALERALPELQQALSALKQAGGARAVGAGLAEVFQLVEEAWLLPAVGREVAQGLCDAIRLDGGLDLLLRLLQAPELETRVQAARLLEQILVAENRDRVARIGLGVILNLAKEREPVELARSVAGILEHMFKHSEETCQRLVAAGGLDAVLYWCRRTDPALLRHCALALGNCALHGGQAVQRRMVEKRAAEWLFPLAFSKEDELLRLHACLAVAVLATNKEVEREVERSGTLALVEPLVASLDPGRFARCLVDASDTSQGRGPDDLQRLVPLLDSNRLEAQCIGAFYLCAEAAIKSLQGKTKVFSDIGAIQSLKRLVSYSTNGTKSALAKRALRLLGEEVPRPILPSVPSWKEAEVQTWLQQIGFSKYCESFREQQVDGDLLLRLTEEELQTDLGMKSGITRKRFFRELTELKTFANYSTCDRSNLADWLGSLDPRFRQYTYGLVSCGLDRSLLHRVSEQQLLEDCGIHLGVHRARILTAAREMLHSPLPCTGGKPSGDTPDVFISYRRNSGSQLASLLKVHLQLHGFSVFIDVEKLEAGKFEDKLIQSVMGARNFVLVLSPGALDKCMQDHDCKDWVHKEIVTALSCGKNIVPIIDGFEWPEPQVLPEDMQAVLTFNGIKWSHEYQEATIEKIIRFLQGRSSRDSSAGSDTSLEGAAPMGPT
# Assay: SARM1 (50-724) enzymatic assay (LC-MS/MS)
# Format: biochemical
# Conditions: Purified SARM1 (50-724) 2 nM, NMN as activator, NAD+ as substrate, 1 h at room temperature, read-out: IC50 (SARM1 inhibitory activity)
# Procedure, shortened: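 Human SARM1 (50-724), 2 nM, pre-incubated 15 min at room temperature with compound in Dulbecco's PBS. Reaction started with 200 µM NMN (activator) plus […] NAD^+ substrate, run 1 h at room temperature, quenched with 70% acetonitrile. Turnover quantified by LC-MS/MS; IC50 reported.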
row,SMILES,IC50 [nM]
1,"Cc1ccc2[nH]c(-c3ccc(C(N)=O)n3C3CCCC3)nc2c1 [Compound 24, 1-cyclopentyl-5-(5-methyl-1H-1,3-benzodiazol-2-yl)pyrrole-2-carboxamide]",> 1000
2,"Cc1ccc2[nH]c(-c3nncn3C3CCCC3)nc2c1 [Example 1, 2-(4-cyclopentyl-4H-1,2,4-triazol-3-yl)-5-methyl-1H-benzo[d]imidazole]",> 1000
3,"FC(F)(F)c1ncc2[nH]c(-c3nncn3-c3cnccc3C(F)(F)F)cc2n1 [Compound 378, 2-(trifluoromethyl)-6-(4-(4-(trifluoromethyl)pyridin-3-yl)-4H-1,2,4-triazol-3-yl)-5H-pyrrolo[3,2-d]pyrimidine]",> 1000
4,"[2H]c1nnc(-c2nc3c(F)c(C4([2H])CC4)cc(F)c3[nH]2)n1-c1cnccc1C(F)(F)F [Compound 394, 5-(cyclopropyl-1-d)-4,7-difluoro-2-(4-(4-(trifluoromethyl)pyridin-3-yl)-4H-1,2,4-triazol-3-yl-5-d)-1H-benzo[d]imidazole]",≤ 100
5,"N#Cc1c(-n2c(-c3cccc(Cl)c3Cl)n[nH]c2=O)[nH]c2ccc(C(F)(F)F)cc12 [Compound 41, 2-(3-(2,3-dichlorophenyl)-5-oxo-1,5-dihydro-4H-1,2,4-triazol-4-yl)-5-(trifluoromethyl)-1H-indole-3-carbonitrile]",> 1000
6,"[2H]c1nnc(-c2nc3cc(C4([2H])CC4)cc(F)c3[nH]2)n1-c1cnccc1C(F)(F)F [Compound 359, 5-(cyclopropyl-1-d)-7-fluoro-2-(4-(4-(trifluoromethyl)pyridin-3-yl)-4H-1,2,4-triazol-3-yl-5-d)-1H-benzo[d]imidazole]",≤ 100
7,"OCCOc1cc(-n2cnnc2-c2nc3cc(C(F)(F)F)ccc3[nH]2)c(OC(F)(F)F)cc1F [Compound 263, 2-(2-fluoro-4-(trifluoromethoxy)-5-(3-(5-(trifluoromethyl)-1H-benzo[d]imidazol-2-yl)-4H-1,2,4-triazol-4-yl)phenoxy)ethan-1-ol]",≤ 100
8,"FC1(F)CN(Cc2nnc(-c3nc4cc(C(F)(F)F)ccc4[nH]3)n2-c2cccc(Cl)c2Cl)C1 [Compound 157, 2-(4-(2,3-dichlorophenyl)-5-((3,3-difluoroazetidin-1-yl)methyl)-4H-1,2,4-triazol-3-yl)-5-(trifluoromethyl)-1H-benzo[d]imidazole]",≤ 100
9,"FC(F)(F)Oc1cn2ccnc2cc1-n1cnnc1-c1nc2cc(C(F)(F)F)ccc2[nH]1 [Compound 232, 2-(4-(6-(trifluoromethoxy)imidazo[1,2-a]pyridin-7-yl)-4H-1,2,4-triazol-3-yl)-5-(trifluoromethyl)-1H-benzo[d]imidazole]",≤ 100
10,"FC(F)(F)c1ccc2[nH]c(-c3ccnn3-c3cnccc3C(F)(F)F)nc2c1 [Compound 449, 5-(trifluoromethyl)-2-(1-(4-(trifluoromethyl)pyridin-3-yl)-1H-pyrazol-5-yl)-1H-benzo[d]imidazole]",≤ 100
11,"OC1CN(Cc2nnc(-c3nc4cc(C(F)(F)F)ccc4[nH]3)n2-c2cccc(Cl)c2Cl)C1 [Compound 144, 1-((4-(2,3-dichlorophenyl)-5-(5-(trifluoromethyl)-1H-benzo[d]imidazol-2-yl)-4H-1,2,4-triazol-3-yl)methyl)azetidin-3-ol]",≤ 100
12,"Cn1cc(-c2cnccc2C(F)(F)F)c(-c2nc3c(Cl)c(Cl)ccc3[nH]2)cc1=O [Compound 393, 4-(4,5-dichloro-1H-benzo[d]imidazol-2-yl)-1-methyl-4′-(trifluoromethyl)-[3,3′-bipyridin]-6(1H)-one]",500 to 1000
13,"N#CC1(c2c(-c3nncn3-c3cnccc3C(F)(F)F)[nH]c3ccc(C(F)(F)F)cc23)CC1 [Compound 425, 1-[5-(trifluoromethyl)-2-[4-[4-(trifluoromethyl)-3-pyridyl]-1,2,4-triazol-3-yl]-1H-indol-3-yl]cyclopropanecarbonitrile]",≤ 100

# Results, then the compound that gave them:
row,IC50 [nM],SMILES
1,≤ 100,"CC(c1cc(F)c2[nH]c(-c3nncn3-c3cnccc3C(F)(F)F)nc2c1)n1cccn1 (stereo not drawn) [Compound 454, 5-(1-(1H-pyrazol-1-yl)ethyl)-7-fluoro-2-(4-(4-(trifluoromethyl)pyridin-3-yl)-4H-1,2,4-triazol-3-yl)-1H-benzo[d]imidazole]"
2,≤ 100,"Fc1cc(OCC(F)F)cc2nc(-c3nncn3-c3cnccc3C(F)(F)F)[nH]c12 [Compound 331, 5-(2,2-difluoroethoxy)-7-fluoro-2-(4-(4-(trifluoromethyl)pyridin-3-yl)-4H-1,2,4-triazol-3-yl)-1H-benzo[d]imidazole]"
3,≤ 100,"OCCOc1cc(-n2cnnc2-c2nc3cc(C(F)(F)F)ccc3[nH]2)c(OC(F)(F)F)cn1 [Compound 241, 2-((5-(trifluoromethoxy)-4-(3-(5-(trifluoromethyl)-1H-benzo[d]imidazol-2-yl)-4H-1,2,4-triazol-4-yl)pyridin-2-yl)oxy)ethan-1-ol]"
4,> 1000,"O=C1CCCN1c1ccc2[nH]c(-c3nncn3-c3cccc(Cl)c3Cl)nc2c1 [Example 137, 1-(2-(4-(2,3-dichlorophenyl)-4H-1,2,4-triazol-3-yl)-1H-benzo[d]imidazol-5-yl)pyrrolidin-2-one]"
5,≤ 100,"Fc1cccc(-n2cnnc2-c2nc3cc(C(F)(F)F)ccc3[nH]2)c1Cl [Example 59, 2-(4-(2-chloro-3-fluorophenyl)-4H-1,2,4-triazol-3-yl)-5-(trifluoromethyl)-1H-benzo[d]imidazole]"
6,≤ 100,"CC(=O)c1ccc2[nH]c(-c3nncn3-c3ccc(F)c(F)c3Cl)nc2c1 [Compound 158, 1-(2-(4-(2-chloro-3,4-difluorophenyl)-4H-1,2,4-triazol-3-yl)-1H-benzo[d]imidazol-5-yl)ethan-1-one]"
7,≤ 100,"FC(F)(F)Oc1cnccc1-n1cnnc1-c1nc2cc(C34CC(C3)C4)ccc2[nH]1 [Compound 223, 5-(bicyclo[1.1.1]pentan-1-yl)-2-(4-(3-(trifluoromethoxy)pyridin-4-yl)-4H-1,2,4-triazol-3-yl)-1H-benzo[d]imidazole]"
8,≤ 100,"CC(F)(F)c1cc(F)c2[nH]c(-c3nncn3-c3cnccc3C(F)(F)F)nc2c1 [Compound 468, 6-(1,1-difluoroethyl)-4-fluoro-2-(4-(4-(trifluoromethyl)pyridin-3-yl)-4H-1,2,4-triazol-3-yl)-1H-benzo[d]imidazole]"
9,> 1000,"Cc1cnc2[nH]c(-c3nncn3-c3cccc(F)c3Cl)nc2n1 [Compound 176, 2-(4-(2-chloro-3-fluorophenyl)-4H-1,2,4-triazol-3-yl)-6-methyl-1H-imidazo[4,5-b]pyrazine]"
10,≤ 100,"Oc1cc(F)c(Cl)c(-n2cnnc2-c2nc3cc(C(F)(F)F)ccc3[nH]2)c1 [Compound 207, 4-chloro-3-fluoro-5-(3-(5-(trifluoromethyl)-1H-benzo[d]imidazol-2-yl)-4H-1,2,4-triazol-4-yl)phenol]"
11,≤ 100,"Clc1cc(-c2ccc3[nH]c(-c4nncn4-c4cccc(Cl)c4Cl)nc3c2)[nH]n1 [Example 82, 5-(3-chloro-1H-pyrazol-5-yl)-2-(4-(2,3-dichlorophenyl)-4H-1,2,4-triazol-3-yl)-1H-benzo[d]imidazole]"
12,≤ 100,"Cn1ncc(C(F)(F)F)c1-n1cnnc1-c1nc2cc(C(F)(F)F)ccc2[nH]1 [Compound 257, 2-(4-(1-methyl-4-(trifluoromethyl)-1H-pyrazol-5-yl)-4H-1,2,4-triazol-3-yl)-5-(trifluoromethyl)-1H-benzo[d]imidazole]"
13,≤ 100,"O=S(=O)(Cc1nnc(-c2nc3cc(Cl)cc(F)c3[nH]2)n1-c1cccc(F)c1Cl)C1CC1 [Compound 194, 5-chloro-2-(4-(2-chloro-3-fluorophenyl)-5-((cyclopropylsulfonyl)methyl)-4H-1,2,4-triazol-3-yl)-7-fluoro-1H-benzo[d]imidazole]"
14,≤ 100,"N#CC1CC1c1ccc2[nH]c(-c3nncn3-c3cnccc3C(F)(F)F)nc2c1F (stereo not drawn) [Compound 320, 2-(4-fluoro-2-(4-(4-(trifluoromethyl)pyridin-3-yl)-4H-1,2,4-triazol-3-yl)-1H-benzo[d]imidazol-5-yl)cyclopropane-1-carbonitrile]"
15,≤ 100,O=C(O)C1(c2ccc3[nH]c(-c4nncn4-c4cccc(Cl)c4Cl)nc3c2)CCC1 [Example 113]
16,≤ 100,"FC(F)(F)Oc1cnc(C2CC2)cc1-n1cnnc1-c1nc2cc(C(F)(F)F)ccc2[nH]1 [Compound 221, 2-(4-(2-cyclopropyl-5-(trifluoromethoxy)pyridin-4-yl)-4H-1,2,4-triazol-3-yl)-5-(trifluoromethyl)-1H-benzo[d]imidazole]"
17,> 1000,"CP(C)(=O)c1ccc(Cl)c(-n2cnnc2-c2nc3cc(C(F)(F)F)ccc3[nH]2)c1 [Compound 244, (4-chloro-3-(3-(5-(trifluoromethyl)-1H-benzo[d]imidazol-2-yl)-4H-1,2,4-triazol-4-yl)phenyl)dimethylphosphine oxide]"
